Reference: patent US12037333B2, “Pyridopyrazine and pyridotriazine inhibitors of influenza virus replication” (priority 2018, dated 2024)

tested on: Influenza type A (strain A/PR/8/34, ATCC VR-95); experiment: Influenza antiviral assay: inhibition of virus-induced cytopathic effects (CPE) in MDCK cells, XTT dye reduction; format: cell-based; conditions: Influenza A virus, H1N1 / PR/8, MDCK, 96 h, strain A/PR/8/34, MDCK cells, CPE inhibition at 4 days

Structure (SMILES)	EC50 [nM]
O=C1c2c(O)c(=O)ccn2N(C23c4ccccc4CC2Cc2c3ccc(F)c2F)CN1C1CC1 (stereo not drawn) [Compound A61]	< 125
O=C1c2c(O)c(=O)ccn2N(C23c4ccccc4CC2Cc2c3ccc(F)c2F)CN1CCCF (stereo not drawn) [Compound A80]	< 125
CCN1CN(C23c4ccccc4CC2Cc2c3ccc(F)c2C)n2ccc(=O)c(O)c2C1=O (stereo not drawn) [Compound A77]	< 125
O=C1c2c(O)c(=O)ccn2N(C23c4ccccc4CC2Cc2c(F)cccc23)CN1C1CC1 (stereo not drawn) [Compound A65]	125 to 250
O=C1c2c(O)c(=O)ccn2N(C23c4ccccc4CC2Cc2c3ccc(F)c2F)CN1CC1CCCCO1 (stereo not drawn) [Compound A131]	375 to 500
CC(C)N1CN(C23c4ccccc4CC2(C)Cc2ccccc23)n2ccc(=O)c(O)c2C1=O (stereo not drawn) [Compound A50, 5-hydroxy-3-isopropyl-1-(9a-methyl-9a,10-dihydroindeno[1,2-a]inden-4b(9H)-yl)-2,3-dihydro-1H-pyrido[2,1-f] [1,2,4] triazine-4,6-dione]	< 125
CN1CN(C23c4ccccc4CC2(C(F)F)Cc2ccccc23)n2ccc(=O)c(O)c2C1=O (stereo not drawn) [Compound A63]	125 to 250
CCN1CN(C23c4ccccc4CC2Cc2c(Cl)cccc23)n2ccc(=O)c(O)c2C1=O (stereo not drawn) [Compound A55]	< 125
O=C1c2c(O)c(=O)ccn2N(C23c4ccccc4CC2Cc2c(Cl)cccc23)CN1CC1CC1 (stereo not drawn) [Compound A108]	250 to 375
CCN1CN(C23c4ccccc4CC2(CC)Cc2ccccc23)n2ccc(=O)c(O)c2C1=O (stereo not drawn) [Compound A157]	125 to 250
CCN1CN(C23c4cccc(C)c4CC2Cc2c(F)cccc23)n2ccc(=O)c(O)c2C1=O (stereo not drawn) [Compound A66]	125 to 250
O=C1c2c(O)c(=O)ccn2N(C23c4ccccc4CC2Cc2ccccc23)CN1CC1CC1 (stereo not drawn) [Compound A2, 3-Cyclopropylmethyl-1-(9a,10-dihydro-9H-indeno[1,2-a]inden-4b-yl)-5-hydroxy-2,3-dihydro-1H-pyrido[2,1-f][1,2,4]triazine-4,6-dione]	125 to 250
O=C1c2c(O)c(=O)ccn2N(C23c4ccccc4CC2Cc2c3ccc(F)c2F)CN1C1CCC1 (stereo not drawn) [Compound A92, 3-Cyclobutyl-1-(1,2-difluoro-9a,10-dihydroindeno[1,2-a]inden-4b(9H)-yl)-5-hydroxy-2,3-dihydro-1H-pyrido[2,1-f][1,2,4]triazine-4,6-dione]	250 to 375
CC(C)CN1CN(C23c4cccc(F)c4CC2Cc2c(F)cccc23)n2ccc(=O)c(O)c2C1=O (stereo not drawn) [Compound A156]	250 to 375
CC(C)CN1C(=O)c2c(O)c(=O)ccn2N(C23c4ccccc4CC2Cc2c(Cl)cccc23)C1C (stereo not drawn) [Compound A118]	> 500
O=C1c2c(O)c(=O)ccn2N(C23c4ccccc4CC2Cc2c(Cl)cccc23)CN1C1CCC1 (stereo not drawn) [Compound A103]	250 to 375
CN1CN(C23c4ccccc4CC2Cc2cccc(F)c23)n2ccc(=O)c(O)c2C1=O (stereo not drawn) [Compound A145]	< 125
CCC1N(C)C(=O)c2c(O)c(=O)ccn2N1C12c3ccccc3CC1Cc1ccccc12 (stereo not drawn) [Compound A166]	< 125
O=C1c2c(O)c(=O)ccn2N(C23c4ccccc4CC2Cc2cc(F)c(F)cc23)CN1Cc1cccc(F)c1 (stereo not drawn) [Compound A24, 1-(2,3-difluoro-9a,10-dihydroindeno[1,2-a]inden-4b(9H)-yl)-3-(3-fluorobenzyl)-5-hydroxy-2,3-dihydro-1H-pyrido[2,1-f][1,2,4]triazine-4,6-dione]	> 500
O=C1c2c(O)c(=O)ccn2N(C23c4ccccc4CC2Cc2cc(F)c(F)cc23)CN1CCc1ccc(F)cc1 (stereo not drawn) [Compound A29, 1-(2,3-difluoro-9a,10-dihydroindeno[1,2-a]inden-4b(9H)-yl)-3-(4-fluorophenethyl)-5-hydroxy-2,3-dihydro-1H-pyrido[2,1-f][1,2,4]triazine-4,6-dione]	125 to 250
O=C1c2c(O)c(=O)ccn2N(C23c4ccccc4CC2Cc2cc(F)c(F)cc23)CN1CC1CCOCC1 (stereo not drawn) [Compound A16, 1-(2,3-Difluoro-9a,10-dihydro-9H-indeno[1,2-a]inden-4b-yl)-5-hydroxy-3-(tetrahydro-pyran-4-ylmethyl)-2,3-dihydro-1H-pyrido[2,1-f][1,2,4]triazine-4,6-dione]	< 125
